Test system: Hsp70
Experiment: Hsp70 ELISA assay: Hsp70 induction in Ramos B lymphoma cells
Assay type: cell-based
Details: for EC50: Homo sapiens, Ramos B lymphoma cells treated at 10, 50, 250 and 1250 nM for 5 h, whole culture lysate, Hsp70 ELISA, read-out: ED50 (Hsp70 induction)
Description: Hsp70 induction was measured in Ramos B lymphoma cells. Cells were seeded at 80 μl/well in 96-plate and treated with compounds at 10, 50, 250 and 1250 nM for 5 h. […] Cells were lysed in culture medium with ¼-vol of alkaline-detergent buffer composed of 200 mM bicarbonate, pH 9.4, and 20% Triton X100 to include Hsp70 that would be released into culture supernatant. […] Fifty microliter of the whole culture lysate was transferred to Hsp70 ELISA assay well (Assay Design) including 150 μl of immunoenhancer solution (Toyobo, Japan). Then the assay steps were carried out according to the protocol of the manufacturer. Compound A was included in each cell culture plate as a reference to normalize the interexperimental variance.

| Structure (SMILES) | EC50 [nM] | Hsp70 induction (Ramos B lymphoma cells, titration used to set cell density) |
| --- | --- | --- |
| COc1ccc(OC)c(C(=[Se])N(C)NC(=O)CC(=O)NN(C)C(=[Se])c2cc(OC)ccc2OC)c1 [Compound 12, N′^1,N′3-bis(2,5-dimethoxyphenylcarbonoselenoyl)-N′^1,N′^3-dimethylmalonohydrazide] | > 1250 | – |
| CN(NC(=O)CC(=O)NN(C)C(=S)c1ccccc1)C(=S)c1ccccc1 [Compound A, reference compound] | – | Hsp70 induction in linear manner with concentration |
| CO/N=C(\c1ccccc1)N(C)NC(=O)CC(=O)NN(C)/C(=N/OC)c1ccccc1 [Compound 10, N′1,N′3-bis((E)-(methoxyimino)(phenyl)methyl)-N′1,N′3-dimethylmalonohydrazide] | > 1250 | – |
| CN(NC(=O)CS(=O)(=O)NN(C)C(=[Se])c1ccccc1)C(=[Se])c1ccccc1 [Compound 14, N′-methyl-2-(2-methyl-2-(phenylcarbonoselenoyl)hydrazinyl)-2-oxo-N′-(phenylcarbonoselenoyl)ethanesulfonohydrazide] | > 1250 | – |
| CN(NC(=O)CC(=O)NN(C)C(=[Se])c1ccccc1)C(=[Se])c1ccccc1 [Compound 1, N′1,N′3-dimethyl-N′1,N′3-di(phenylcarbonoselenoyl)malonohydrazide] | 70 | – |
| CN(NC(=O)CC(=O)NN(C)/C(=N/O)c1ccccc1)/C(=N/O)c1ccccc1 [Compound 11, N′1,N′3-bis((E)-(hydroxyimino)(phenyl)methyl)-N′1,N′3-dimethylmalonohydrazide] | > 1250 | – |
| CNN=C(C(=O)NN(C)C(=[Se])c1ccccc1)C(=O)NN(C)C(=[Se])c1ccccc1 [Compound 13, N′1,N′3-dimethyl-2-(2-methylhydrazono)-N′1,N′3-di(phenylcarbonoselenoyl)malonohydrazide] | > 1250 | – |
